A value given as a limit tells only on which side of the number the result lay.

This assay addresses T1, recombinant LRRK2 kinase (Homo sapiens, UniProt Q5S007).
T1 construct: purchased Signal Chem, Richmond, BC, Canada
Nature of the assay: LRRK2 kinase inhibition (Kinase-Glo luminescence). It counts as biochemical. To be noted: IC50 grade; 25 μmol/L ATP, LRRKtide, 30° C. 2 hours; read-out: Enzyme activity LRRK2. As to the method: Upon completion of the reaction, an equal amount of Kinase-Glo (Promega, Madison, Wis.) solution was added thereto, followed by reaction for 40 minutes. A detection solution was added thereto, followed by further reaction at room temperature for 30 minutes. Then, IC50 of kinase was calculated by measuring the amount of luciferase using a microplate ELISA reader (Bio-Tek).

T1 sequence (Q5S007 whole entry): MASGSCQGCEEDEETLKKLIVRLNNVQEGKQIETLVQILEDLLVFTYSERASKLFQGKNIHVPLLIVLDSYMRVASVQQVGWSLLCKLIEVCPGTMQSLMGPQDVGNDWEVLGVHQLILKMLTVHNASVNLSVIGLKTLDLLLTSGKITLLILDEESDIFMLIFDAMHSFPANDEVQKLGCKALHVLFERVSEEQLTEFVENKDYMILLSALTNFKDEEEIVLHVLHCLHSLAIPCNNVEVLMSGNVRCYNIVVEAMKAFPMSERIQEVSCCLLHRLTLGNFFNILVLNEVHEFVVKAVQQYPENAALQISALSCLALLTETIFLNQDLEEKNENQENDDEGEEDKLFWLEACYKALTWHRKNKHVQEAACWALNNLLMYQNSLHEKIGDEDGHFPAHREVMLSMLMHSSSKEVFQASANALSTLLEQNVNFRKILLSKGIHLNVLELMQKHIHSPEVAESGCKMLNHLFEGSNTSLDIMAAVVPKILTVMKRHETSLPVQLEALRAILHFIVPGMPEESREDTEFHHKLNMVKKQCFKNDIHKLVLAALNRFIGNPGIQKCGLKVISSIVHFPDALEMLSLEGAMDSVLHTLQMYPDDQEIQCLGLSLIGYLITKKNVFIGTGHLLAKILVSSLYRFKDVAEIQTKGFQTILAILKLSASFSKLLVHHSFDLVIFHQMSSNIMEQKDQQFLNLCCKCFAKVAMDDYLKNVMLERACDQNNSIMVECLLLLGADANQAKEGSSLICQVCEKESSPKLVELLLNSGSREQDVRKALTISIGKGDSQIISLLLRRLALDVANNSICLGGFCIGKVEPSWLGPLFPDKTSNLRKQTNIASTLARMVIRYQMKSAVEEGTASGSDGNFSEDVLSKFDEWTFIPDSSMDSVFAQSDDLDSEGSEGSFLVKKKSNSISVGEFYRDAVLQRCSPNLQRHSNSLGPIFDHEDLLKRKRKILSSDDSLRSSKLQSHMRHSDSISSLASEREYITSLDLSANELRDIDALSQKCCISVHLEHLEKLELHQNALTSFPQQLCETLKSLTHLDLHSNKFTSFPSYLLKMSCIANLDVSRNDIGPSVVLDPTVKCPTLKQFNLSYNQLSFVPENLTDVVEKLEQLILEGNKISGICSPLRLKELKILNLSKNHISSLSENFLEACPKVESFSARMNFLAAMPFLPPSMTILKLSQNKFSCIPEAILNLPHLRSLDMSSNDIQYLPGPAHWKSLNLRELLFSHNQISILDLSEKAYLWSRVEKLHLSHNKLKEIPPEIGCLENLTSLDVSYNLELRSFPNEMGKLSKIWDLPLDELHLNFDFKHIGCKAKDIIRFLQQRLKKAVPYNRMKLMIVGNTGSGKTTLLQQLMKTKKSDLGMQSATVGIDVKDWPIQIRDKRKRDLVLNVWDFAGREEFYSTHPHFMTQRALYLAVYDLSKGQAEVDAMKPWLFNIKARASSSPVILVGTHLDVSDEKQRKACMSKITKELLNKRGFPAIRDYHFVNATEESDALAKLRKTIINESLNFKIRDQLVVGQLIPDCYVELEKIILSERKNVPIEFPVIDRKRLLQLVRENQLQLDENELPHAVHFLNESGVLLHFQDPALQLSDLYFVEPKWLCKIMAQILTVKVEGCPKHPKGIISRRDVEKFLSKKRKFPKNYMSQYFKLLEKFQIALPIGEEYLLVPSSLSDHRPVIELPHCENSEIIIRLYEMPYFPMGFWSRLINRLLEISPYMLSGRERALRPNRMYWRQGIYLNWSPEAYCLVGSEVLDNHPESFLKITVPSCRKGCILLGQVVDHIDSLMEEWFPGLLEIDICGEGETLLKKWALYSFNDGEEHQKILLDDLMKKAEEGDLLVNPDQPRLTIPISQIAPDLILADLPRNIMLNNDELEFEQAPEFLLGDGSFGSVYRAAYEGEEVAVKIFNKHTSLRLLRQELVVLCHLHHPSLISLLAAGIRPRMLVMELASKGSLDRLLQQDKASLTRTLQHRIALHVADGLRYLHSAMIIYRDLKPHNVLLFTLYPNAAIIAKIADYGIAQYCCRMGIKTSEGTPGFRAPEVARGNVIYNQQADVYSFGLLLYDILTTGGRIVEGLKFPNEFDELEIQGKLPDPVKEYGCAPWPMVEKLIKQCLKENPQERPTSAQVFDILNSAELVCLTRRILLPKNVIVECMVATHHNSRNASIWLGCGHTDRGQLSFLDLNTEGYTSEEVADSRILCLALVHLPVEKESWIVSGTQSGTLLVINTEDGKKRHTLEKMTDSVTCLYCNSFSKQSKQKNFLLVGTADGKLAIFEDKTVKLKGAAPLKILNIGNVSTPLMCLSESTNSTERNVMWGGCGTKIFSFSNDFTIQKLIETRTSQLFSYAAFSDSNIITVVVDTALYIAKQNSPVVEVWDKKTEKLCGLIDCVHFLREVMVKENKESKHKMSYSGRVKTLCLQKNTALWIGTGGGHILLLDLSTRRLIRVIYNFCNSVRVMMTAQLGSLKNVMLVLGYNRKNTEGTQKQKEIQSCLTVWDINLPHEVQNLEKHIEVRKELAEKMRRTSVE

On to `CNc1nc(Nc2cn(C(C)(C)C(N)=O)nc2C)nc2[nH]cc(C#N)c12` [Example 46, 2-(4-((5-cyano-4-(methylamino)-7H-pyrrolo[2,3-d]pyrimidine-2-yl)amino)-3-methyl-1H-pyrazole-1-yl)-2-methylpropaneamide], for which the IC50 was under 10 nM.
As for `COc1cc(C(=O)N2CCOCC2)ccc1Nc1nc(OC2CCOC2)c2c(C#N)c[nH]c2n1` (stereo not shown) [Example 86, 2-((2-methoxy-4-(morpholine-4-carbonyl)phenyl)amino)-4-((tetrahydrofuran-3-yl)oxy)-7H-pyrrolo[2,3-d]pyrimidine-5-carbonitrile], the IC50 was under 10 nM.
The same measure for `CCNc1nc(Nc2ccc(C(=O)N3CCC(F)(F)CC3)cc2OC)nc2[nH]cc(C#N)c12` [Example 27, 2-((4-(4,4-difluoropiperidine-1-carbonyl)-2-methoxyphenyl)amino)-4-(ethylamino)-7H-pyrrolo[2,3-d]pyrimidine-5-carbonitrile]: under 10 nM; for `CNc1nc(Nc2ccc(C(=O)N3CCC(F)(F)CC3)cc2OC)nc2[nH]cc(C#N)c12` [Example 23]: under 10 nM; for `COc1cc(C(=O)N2CCOCC2)ccc1Nc1nc(OC(C)C)c2c(C#N)c[nH]c2n1` [Example 90, 4-isoprofoxy-2-((2-methoxy-4-(morpholine-4-carbonyl)phenyl)amino)-7H-pyrrolo[2,3-d]pyrimidine-5-carbonitrile]: under 10 nM.
For the compound `F[C@H]1CN(C2COC2)CC[C@@H]1n1ncc(Nc2nc(OC3CCOC3)c3c(C(F)(F)F)c[nH]c3n2)c1Cl` (stereo partly shown) [Example 127], the IC50 was 10 to 100 nM.
For `CNc1nc(Nc2ccc(C(=O)N3CCN(C)C[C@H]3C)cc2OC)nc2[nH]cc(C#N)c12` [Example 75, (R)-2-((4-(2,4-dimethylpiperazine-1-carbonyl)-2-methoxyphenyl)amino)-4-(methylamino)-7H-pyrrolo[2,3-d]pyrimidine-5-carbonitrile], the IC50 is under 10 nM.
On to `COc1cc(C(=O)N2CCO[C@@H](C)C2)ccc1Nc1nc(NC2(C)CC2)c2c(C#N)c[nH]c2n1` [Example 43, (S)-2-((2-methoxy-4-(2-methylmorpholine-4-carbonyl)phenyl)amino)-4-((1-methylcyclopropyl)amino)-7H-pyrrolo[2,3-d]pyrimidine-5-carbonitrile], for which the IC50 is under 10 nM.
The same measure for `CCNc1nc(Nc2cnn(C)c2)nc2[nH]cc(C#N)c12` [Example 4, 4-(ethylamino)-2-((1-methyl-1H-pyrazole-4-yl)amino)-7H-pyrrolo[2,3-d]pyrimidine-5-carbonitrile]: under 10 nM; for `CCNc1nc(Nc2cc3c(cc2OC)CN(C)C3=O)nc2[nH]cc(C(F)(F)F)c12` [Example 134, 6-((4-(ethylamino)-5-(trifluoromethyl)-7H-pyrrolo[2,3-d]pyrimidine-2-yl)amino)-5-methoxy-2-methylisoindolin-1-one]: over 100 nM.
The same measure for `CCNc1nc(Nc2cc3c(cc2OC)C(=O)N(C)C3)nc2[nH]cc(C(F)(F)F)c12` [Example 133, 5-((4-(ethylamino)-5-(trifluoromethyl)-7H-pyrrolo[2,3-d]pyrimidine-2-yl)amino)-6-methoxy-2-methylisoindolin-1-one]: under 10 nM; for `CCCNc1nc(Nc2cc(F)c(C(=O)N3CCOCC3)cc2OC)nc2[nH]cc(C#N)c12` [Example 14, 2-((5-fluoro-2-methoxy-4-(morpholine-4-carbonyl)phenyl)amino)-4-(propylamino)-7H-pyrrolo[2,3-d]pyrimidine-5-carbonitrile]: 10 to 100 nM; for `CCCNc1nc(Nc2ccc(C(=O)N3CCC(N4CCOCC4)CC3)cc2OC)nc2[nH]cc(C#N)c12` [Example 13, 2-((2-methoxy-4-(4-morpholinopiperidine-1-carbonyl)phenyl)amino)-4-(propylamino)-7H-pyrrolo[2,3-d]pyrimidine-5-carbonitrile]: under 10 nM.
The figure for `COc1cc(C(=O)N2CCOCC2)ccc1Nc1nc(O[C@H]2CCOC2)c2c(C#N)c[nH]c2n1` [Example 88, (S)-2-((2-methoxy-4-(morpholine-4-carbonyl)phenyl)amino)-4-((tetrahydrofuran-3-yl)oxy)-7H-pyrrolo[2,3-d]pyrimidine-5-carbonitrile] is under 10 nM; for `CCNc1nc(Nc2cc3c(cc2Cl)C(=O)N(C)C3)nc2[nH]cc(C#N)c12` [Example 128, 2-((6-chloro-2-methyl-1-oxoisoindol-5-yl)amino)-4-(ethylamino)-7H-pyrrolo[2,3-d]pyrimidine-5-carbonitrile] it is over 100 nM.
In the case of `CCNc1nc(Nc2cc3c(cc2Cl)C(=O)N(C)C3)nc2[nH]cc(C(F)(F)F)c12` [Example 135, 6-chloro-5-((4-(ethylamino)-5-(trifluoromethyl)-7H-pyrrolo[2,3-d]pyrimidine-2-yl)amino)-2-methyl isoindolin-1-one], the IC50 is over 100 nM.
The same measure for `CCNc1nc(Nc2cnn(C(C)(C)C#N)c2Cl)nc2[nH]cc(C#N)c12` [Example 74, 2-((5-chloro-1-(2-cyanopropane-2-yl)-1H-pyrazole-4-yl)amino)-4-(ethylamino)-7H-pyrrolo[2,3-d]pyrimidine-5-carbonitrile]: under 10 nM.
The figure for `CNc1nc(Nc2ccc(C(=O)N3CCO[C@@H](C)C3)cc2OC)nc2[nH]cc(C#N)c12` [Example 21, (S)-2-((2-methoxy-4-(2-methylmorpholine-4-carbonyl)phenyl)amino)-4-(methylamino)-7H-pyrrolo[2,3-d]pyrimidine-5-carbonitrile] is under 10 nM; for `CNc1nc(Nc2cn(C)nc2C)nc2[nH]cc(C#N)c12` [Example 28, 6-((1,3-dimethyl-1H-pyrazole-4-yl)amino)-4-(methylamino)-1H-pyrrolo[2,3-b]pyrimidine-3-carbonitrile] it is 10 to 100 nM; for `CCNc1nc(Nc2ccc(C(=O)N3CCO[C@H](C)C3)cc2OC)nc2[nH]cc(C#N)c12` [Example 25, (R)-4-(ethylamino)-2-((2-methoxy-4-(2-methylmorpholine-4-carbonyl)phenyl)amino)-7H-pyrrolo[2,3-d]pyrimidine-5-carbonitrile] it is under 10 nM.
The figure for `COc1cc(C(=O)N2CCC(N3CCOCC3)CC2)c(F)cc1Nc1nc(NC2CC2)c2c(C#N)c[nH]c2n1` [Example 19, 4-(cyclopropylamino)-2-((5-fluoro-2-methoxy-4-(4-morpholinopiperidine-1-carbonyl)phenyl)amino)-7H-pyrrolo[2,3-d]pyrimidine-5-carbonitrile] is 10 to 100 nM; for `CCNc1nc(Nc2ccc(C(=O)NC3CCN(C)CC3)cc2OC)nc2[nH]cc(C#N)c12` [Example 56, 4-((5-cyano-4-(ethylamino)-7H-pyrrolo[2,3-d]pyrimidine-2-yl)amino)-3-methoxy-N-(1-methylpiperidine-4-yl)benzamide] it is under 10 nM.
`CNc1nc(Nc2ccc(C(=O)N3CCO[C@H](C)C3)cc2OC)nc2[nH]cc(C#N)c12` [Example 20, (R)-2-((2-methoxy-4-(2-methylmorpholine-4-carbonyl)phenyl)amino)-4-(methylamino)-7H-pyrrolo[2,3-d]pyrimidine-5-carbonitrile]: the IC50 was under 10 nM.
As for `CCNc1nc(Nc2c(C)nn(C(C)(C)C#N)c2C)nc2[nH]cc(C#N)c12` [Example 78, 2-((1-(2-cyanopropane-2-yl)-3,5-dimethyl-1H-pyrazole-4-yl)amino)-4-(ethylamino)-7H-pyrrolo[2,3-d]pyrimidine-5-carbonitrile], the IC50 is over 100 nM.
The same measure for `CCNc1nc(Nc2ccc(C(=O)N3CCN(C4COC4)CC3)cc2OC)nc2[nH]cc(C#N)c12` [Example 58, 4-(ethylamino)-2-((2-methoxy-4-(4-(oxetane-3-yl)piperazine-1-carbonyl)phenyl)amino)-7H-pyrrolo[2,3-d]pyrimidine-5-carbonitrile]: under 10 nM.

The record behind these values is patent US11208412B2 (DAEGU-GYEONGBUK MEDICAL INNOVATION FOUNDATION, priority 2017, dated 2021).
